Data on five compounds can be found in US20250241308A1, “COMPOSITIONS AND METHODS FOR CONTROLLING PESTS” (PYRONE SYSTEMS, INC., priority 2022, published 2025).

Marks after values point to notes of the source that are not given here.

Test [1] relates to Aedes aegypti Puerto Rican strain (pyrethroid-resistant). Nature of the test: Topical application KD50 and LD50, pyrethroid-resistant strain.
Test [2] deals with Aedes aegypti Orlando strain (pyrethroid-susceptible). Nature of the test: Topical application KD50 and LD50, pyrethroid-susceptible strain.
The subject of test [3] is house fly strain CAR21 (S). Nature of the test: Median lethal dose determination, house fly CAR21. The class given is in vivo. As to the method:
(§1) 24-hour median lethal dose determinations of pogostone and permethrin were performed in three house fly strains and one stable fly strain. The KS17 resistant strain below is simultaneously resistant to organophosphates, carbamates, and synthetic pyrethroids.
(§2) 48-hour median lethal dose determinations of pogostone and permethrin were performed in three house fly strains. The KS17 resistant strain below is simultaneously resistant to organophosphates, carbamates, and synthetic pyrethroids.

Test [4] deals with house fly strain WHF (R). Nature of the test: Median lethal dose determination, house fly WHF. The class given is in vivo. The following applies: for LD50: WHF (R); for RR (resistance ratio): WHF (R) LD50 divided by susceptible strain LD50. As to the method:
as §1, §2

Test [5] has as its system Aedes aegypti adult female mosquitoes. Nature of the test: LD50 of insecticides alone and in combination with sublethal pogostone. The class given is in vivo. The following applies: for Synergism Ratio: LD50 of insecticide alone / LD50 of insecticide in combination with pogostone; for LD50: insecticide alone or with pogostone at sublethal dosage, pogostone effect corrected with Abbott's formula. An excerpt: The dashed line indicates sublethal dosage of pogostone used for synergist experiments in Example 2.
Synergism ratios are presented as the ratio of the LD50 of insecticide alone and the LD50 of insecticide applied in combination with pogostone. The insecticidal effect of pogostone alone is corrected for using Abbott's formula (Equation 1) in all treatments using pogostone.

Test [6] has as its system Stable flies (S). Nature of the test: Median lethal dose determination, stable fly. The class given is in vivo. The note with it: 24-hour. As to the method:
as §1

The test system of test [7] is house fly strain KS17 (R). Nature of the test: Median lethal dose determination, house fly KS17. The class given is in vivo. The note with it: for LD50: KS17 (R); for RR (resistance ratio): KS17 (R) LD50 divided by susceptible strain LD50, NS = not significantly different. The procedure: as §1, §2
The subject of test [8] is pyrethroid-susceptible (Orlando) strain of Aedes aegypti female adult mosquitoes. In words: Spatial repellency, static air repellency chamber, Orlando strain. The class given is in vivo. The following applies: for EC50 (spatial repellency): 1 hour after introducing treated filter papers. The procedure: Spatial repellency of pogostone was assessed on pyrethroid-susceptible (Orlando) and pyrethroid-resistant (Puerto Rico) strains of Aedes aegypti female adult mosquitoes. Repellency bioassays were performed using a static air repellency chamber, which has been described previously (Schultz, 2006; Peterson, 2018). Briefly, the repellency chamber consists of a clear glass cylinder 600 mm in length with an inner diameter of roughly 85 mm laying horizontally. One end of the cylinder is capped with an untreated 90-mm filter paper (Whatman No. 1) contained in a 90-mm inner diameter glass petri dish, and sealed with tape to remain closed. The other end is capped in the same manner, except the filter paper has been treated with 1 mL of a 0.5% (w/v) solution of a monoterpenoid ester in acetone, resulting in 78.6 μg/cm^2 of repellent on the filter paper. The solution was added to the filter paper evenly and at a rate such that the evaporation of acetone prevents loss of compound from dripping, and the acetone was allowed to evaporate at room temperature for a further 10 minutes before use for the short-term repellency assay, or for an additional five hours under open air in ambient conditions in the case of long-term repellency studies. Shortly after placing the filter papers on the end of the tube, twenty (not blood fed) female […] mosquitoes were anesthetized with carbon dioxide, and placed into the tube via a 20-mm hole halfway down the length of the tube, and the hole was sealed. This process is performed with as little disturbance to the air in the tube as possible. The distribution of mosquitoes between the treated and untreated sides was then noted at 15, 30, 60, 90, 120, and 150 minutes after placement into the tube. Repellency ratio of Orlando or Puerto Rico mosquitoes was recorded as a proportion of the number of mosquitoes on the treated side of the tube compared to the whole tube [number of treated side/total number throughout entire tube] at 1 hour after introducing the treated filter papers.

The test system of test [9] is pyrethroid-resistant (Puerto Rico) strain of Aedes aegypti female adult mosquitoes. In words: Spatial repellency, static air repellency chamber, Puerto Rico strain. The class given is in vivo. The procedure:
Spatial repellency of pogostone was assessed on pyrethroid-susceptible (Orlando) and pyrethroid-resistant (Puerto Rico) strains of Aedes aegypti female adult mosquitoes. Repellency bioassays were performed using a static air repellency chamber, which has been described previously (Schultz, 2006; Peterson, 2018). Briefly, the repellency chamber consists of a clear glass cylinder 600 mm in length with an inner diameter of roughly 85 mm laying horizontally. One end of the cylinder is capped with an untreated 90-mm filter paper (Whatman No. 1) contained in a 90-mm inner diameter glass petri dish, and sealed with tape to remain closed. The other end is capped in the same manner, except the filter paper has been treated with 1 mL of a 0.5% (w/v) solution of a monoterpenoid ester in acetone, resulting in 78.6 μg/cm^2 of repellent on the filter paper. […] Repellency ratio of Orlando or Puerto Rico mosquitoes was recorded as a proportion of the number of mosquitoes on the treated side of the tube compared to the whole tube [number of treated side/total number throughout entire tube] at 1 hour after introducing the treated filter papers.

As to `Clc1ccc(C(c2ccc(Cl)cc2)C(Cl)(Cl)Cl)cc1` [DDT], in test [1], the “KD50” value came to 350 ng/mg and the “LD50” value amounted to 530 ng/mg. In addition, in [2], the “KD50” value is listed as 9.5 ng/mg and the “LD50” value is recorded as 9.6 ng/mg.

Turning to `CC1(C)C(C=C(Cl)Cl)C1C(=O)OCc1cccc(Oc2ccccc2)c1` (stereo not shown) [Permethrin], the LD50 in [3] (24-hour) is 15.4 ng/fly; in [3] (48-hour), 14.5 ng/fly; in test [4] (24-hour), 1,100 ng/fly; in test [4] (48-hour), 894 ng/fly; in test [5] it was 0.37 ng/mg; in [6], 1.81 ng/fly. Moreover, the LD50 in test [7] (24-hour) is recorded as more than 5000 ng/fly; in test [7] (48-hour), >5,000 ng/fly. Moreover, the “RR (resistance ratio)” value in test [4] (24-hour) is on record as 71.5; in [4] (48-hour) it was 61.7; in [7] (24-hour), 325.1; in [7] (48-hour), 344.8. In test [5], the “Synergism Ratio” value is reported as 2.6*.

`CCN(CC)C(=O)c1cccc(C)c1` [DEET]: in test [8], the “EC50 (spatial repellency)” value was “approximately 10 μg/cm^2”.

As for `CN/C(=N/CC1CCOC1)N[N+](=O)[O-]` (stereo not shown) [Dinotefuran], in test [5], the “Synergism Ratio” value is 6.0* and the “LD50” value is reported as 12.7 ng/mg.

As for `Cc1cc(O)c(C(=O)CCC(C)C)c(=O)o1` [pogostone], the LD50 in [3] (24-hour) is recorded as 7,600 ng/fly; in test [3] (48-hour) it was 6,800 ng/fly; in test [4] (24-hour), 13,900 ng/fly; in test [4] (48-hour) it was 9,900 ng/fly; in test [6], 540 ng/fly; in test [1] it was 70 ng/mg. The “LD50” value in [2] is 96 ng/mg; in test [7] (24-hour), 10,700 ng/fly; in test [7] (48-hour) it was 6,890 ng/fly. Further, the “RR (resistance ratio)” value stood at 1.8 in test [4] (24-hour) and 1.5 in test [4] (48-hour). Further, the “KD50” value in test [1] is listed as 14 ng/mg; in test [2], 11 ng/mg. For the same compound, the “EC50 (spatial repellency)” value in [8] is 3.6 μg/cm^2; in [9] (1 hour after introducing treated filter papers) it was 2.5 μg/cm^2. The “spatial repellency (in words)” value in [8] (FIG. 2) and in [9] (FIG. 2) was “considerably repellent” each time.
